Measured values from patent US20230075368A1, “IDENTIFICATION OF AN EGFR-BIN3 PATHWAY THAT ACTIVELY SUPPRESSES INVASION AND REDUCES TUMOR SIZE IN GLIOBLASTOMA” (The United States Govemment as represented by the …, priority 2020, published 2023).

Assays:
[1] = system: HB-EGF; test: ELISA for HB-EGF in supernatants; type: cell-based, human; settings: tofacitinib 1 μM, 72 hours; GBM12 and GBM6
Experimental: To determine EGFR ligands in medium, cells were serum starved for 48 hours, supernatants were collected and concentrated 5- to 10-fold with Pierce protein concentrator (ThermoFisher). HB-EGF, TGFα and EGF protein concentration in supernatant and tumor tissue extracts was determined by ELISA using the corresponding commercial HB-EGF, TGFα and EGF protein detection kits (ThermoFisher) per the manufacturer's instructions.

[2] = system: STAT1; test: Western blot of pSTAT1 and STAT1; type: cell-based, human; settings: tofacitinib 1 μM, 24 hours; GBM12 and GBM6
Experimental: Mayo PDX cells were serum starved overnight. Following treatment for specific time, cells were harvested and lysed. The human glioblastoma tissues were ground in liquid nitrogen and then were lysed. […] TGFα antibody was from R&D system.
. . . […] A similar experiment was performed in GBM6 (FIG. 18F). […] The Western blot images are representative of three independent biological replicates. Actin served as loading control. Data are represented as mean±SEM from three independent experiments. *P<0.05, **P<0.01, ***P<0.001, unpaired two-tailed t-test.

[3] = system: glioma cells; settings: Ramnarain et al. 2006, cited from earlier work
[4] = system: GBM12 cells; test: Intravital microscopy of GBM cell motility through cranial window; type: in vivo, mice; settings: 10 ng EGF injected through cranial window 24 hours before imaging
Experimental: Two-photon laser intravital microscope combined with cranial window surgery was used to observe cellular movement in vivo. Female athymic nude mice were anesthetized with 2.5% isoflourane and secured in a stereotactic frame. The head was shaved and the scalp was cut in a circular manner. The periosteum was scraped and a drill was used to create a circular cranial window over the front and parietal bone. 10 μL of 1×10^6 cells/ml GBM12 stably expressing H2B-GFP were implanted at a depth of 0.5 mm. Following implantation, a 5 mm silicone-based polydimethylsiloxane (PDMS) coverslip was glued to the bone surrounding the cranial window. PDMS (SYLGARD184, Sigma-Aldrich) film was prepared as described by Heo et al. (Heo, et al. (2016) A soft, transparent, freely accessible cranial window for chronic imaging and electrophysiology, Sci Rep 6: 27818). PDMS coverslip allows for easy insertion of Hamilton needle into the brain tissue for EGF delivery. Dental cement was applied on the skull surface, covering the edge of the coverslip. Seven days after surgery and 24 hours prior to imaging procedure, 10 ng EGF or vehicle was injected into the mice brain through cranial window. […]
Referring to FIG. 14A and FIG. 14B, EGF reduces cell migration speed in vivo detected by intravital microscopy. […] The cell velocity of around 200 cells per mouse were evaluated. […]

[5] = system: GBM12 and GBM6 cells; test: Scratch-wound assay; type: cell-based, human; settings: EGF 50 ng/ml, 24 hours
Experimental: Cells were cultured in 6 well plate until they reached around 100% confluence. A scratch wound was produced on the monolayer using a sterile 200 ul pipette tip. The cell cultured with serum free DMEM containing EGF (50 ng/ml) or vehicle control. Images of wound were captured 0 and 24 hours after scratch generation.
Referring to FIG. 4A-D, an analysis of glioma cell migration by in vitro scratch assays is shown. […] Data are represented as mean±SEM from three independent experiments. ** P<0.01, unpaired two-tailed t-test.

[6] = system: EMP1; test: Western blot of EMP1; type: cell-based, human; settings: EGF 50 ng/ml, 24 hours; GBM12 and GBM6
Experimental: Whole protein extracts from cells or tumor tissues were analyzed by western blot as previously described (Altieri et al. (2015) Surg. Technol. Int 27: 297-302). Mayo PDX cells were serum starved overnight. Following treatment for specific time, cells were harvested and lysed. The human glioblastoma tissues were ground in liquid nitrogen and then were lysed. EGFR (06-847) antibody was from Millipore. DOCK7 was from Proteintech (Rosemont, Ill.). pEGFR (2236), STAT3 (12640), pSTAT3 (9145), cdc42(4376), and RhoA (4695) antibodies were from Cell Signaling Technology (Danvers, Mass.). TGFα antibody was from R&D system. BIN3 (sc-514396) and (3-Actin (sc-47778) were from Santa Cruz Biotechnology (Dallas, Tex.).
Referring to FIG. 23A-P, EGFR induced EMP1 overexpression drives invasion and is mediated by Nanog. Specifically, cells were transiently transfected with empty or EGFRwt or EGFRvIII vector for 48 hours, and subjected to Western blot analysis for EGFR, pEGFR, BIN3 and EMP1 (FIG. 23A). Similar experiments were performed in GBM14 (FIG. 23B). […] Similar experiments were performed in GBM14 (FIG. 23E). Efficiency of EMP1 knockdown and EGFR overexpression was confirmed by Western blot analysis (FIG. 23F and FIG. 23G). […] FIG. 23J and FIG. 23K show EMP1 mRNA levels in EGFR and EGFRvIII overexpressing GBM12 and GBM14, measured by RT-PCR. […]

Row | Compound | HB-EGF in supernatant [1] | phosphorylation of STAT1 [2] | BIN3 gene upregulation when EGF is added ([3]; EGFR overexpressing glioma cells) [fold] | EGR1 gene induction with ligand-activated EGFR signaling [3] [fold] | movement of glioma cells in live mouse brain [4] | migration (scratch wound closure) [5] | EMP1 level [6]
1 | C[C@@H]1CCN(C(=O)CC#N)C[C@@H]1N(C)c1ncnc2[nH]ccc12 [tofacitinib] | upregulates | blocks phosphorylation | – | – | – | – | –
2 | EGF: Recombinant human EGF (AF-100) from Peprotech; EGFR ligand | – | – | 19.2 | 13.68 | almost complete cessation of movement | suppressing migration | does not affect EMP1 level
